Values of other authors as cited in US20070166227A1, “Crowned dithiocarbamate metal complexes and methods for their use” (priority 2004, published 2007).

binding affinity for NO: log β1 (log β1): 9.74
binding affinity for NO: log β2 (log β2): 15.44
Structure (SMILES): O=C(O)C1CCCN1C(=S)[S-].O=C(O)C1CCCN1C(=S)[S-].[Cu+2] (centres unmarked) [Cu(ProDTC)2]
